Values of other authors, collected in patent US10610528B2, “Solid oral film dosage forms and methods for making same” (Intelgenx Corp., priority 2009, dated 2020).

For `CN1CC(=O)N2[C@H](c3ccc4c(c3)OCO4)c3[nH]c4ccccc4c3C[C@@H]2C1=O` [Tadalafil], the Solubility in water is given as “practically insoluble in water”.
